Among the targets are Cytochrome P450 3A4 (Homo sapiens, UniProt P08684); Cytochrome P450 2D6 (Homo sapiens, UniProt P10635); Cytochrome P450 2C9 (Homo sapiens, UniProt P11712).
The next test concerns the target T1, Cytochrome P450 1A2 (Homo sapiens, UniProt P05177).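 Further: PubChem cytochrome P450 panel assay, CYP1A2 panel member.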
T1 sequence (P05177 whole entry): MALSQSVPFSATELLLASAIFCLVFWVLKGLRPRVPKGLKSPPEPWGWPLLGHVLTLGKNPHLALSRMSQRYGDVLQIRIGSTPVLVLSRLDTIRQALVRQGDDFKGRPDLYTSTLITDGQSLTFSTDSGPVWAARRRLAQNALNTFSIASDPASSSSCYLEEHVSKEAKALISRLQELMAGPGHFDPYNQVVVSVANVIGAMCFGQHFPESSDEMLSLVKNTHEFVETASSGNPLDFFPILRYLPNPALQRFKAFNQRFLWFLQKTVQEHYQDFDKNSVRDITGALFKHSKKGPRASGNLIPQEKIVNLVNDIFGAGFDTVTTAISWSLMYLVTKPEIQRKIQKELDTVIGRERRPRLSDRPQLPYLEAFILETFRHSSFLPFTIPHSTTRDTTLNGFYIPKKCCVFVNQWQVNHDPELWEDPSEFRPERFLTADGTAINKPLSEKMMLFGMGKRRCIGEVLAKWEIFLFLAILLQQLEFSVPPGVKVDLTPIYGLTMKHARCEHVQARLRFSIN

Test [1] deals with T2, Heat shock factor protein 1 (Mus musculus, UniProt P38532).
T2 sequence (P38532 whole entry): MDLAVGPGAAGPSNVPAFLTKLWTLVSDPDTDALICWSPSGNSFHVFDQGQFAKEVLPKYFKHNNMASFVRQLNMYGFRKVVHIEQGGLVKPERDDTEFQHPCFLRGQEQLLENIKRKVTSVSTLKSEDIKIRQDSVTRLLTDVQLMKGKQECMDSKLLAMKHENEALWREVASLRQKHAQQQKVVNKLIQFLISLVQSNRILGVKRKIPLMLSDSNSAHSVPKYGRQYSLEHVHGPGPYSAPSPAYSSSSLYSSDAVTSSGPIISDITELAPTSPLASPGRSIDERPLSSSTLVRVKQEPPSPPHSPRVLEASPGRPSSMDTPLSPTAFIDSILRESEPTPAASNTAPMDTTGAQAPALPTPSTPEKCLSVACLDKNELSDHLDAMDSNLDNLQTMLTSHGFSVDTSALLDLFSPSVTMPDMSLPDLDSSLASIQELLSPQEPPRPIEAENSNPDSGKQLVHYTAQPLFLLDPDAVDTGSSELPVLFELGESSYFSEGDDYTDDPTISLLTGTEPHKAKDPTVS
The test is described as follows: decrease of HSF1-responsive luciferase luminescence – cell-based, NIH3T3, dose retest, confirmation (AID 2382).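 Further: NIH3T3 fibroblasts with HSF1-driven luciferase reporter stressed by proteasome inhibitor MG132; luminescence from HSF1-driven luciferase expression after 8 hours of MG132 stress.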 It counts as functional.

In a further test the target is T3, Streptokinase A (Streptococcus pyogenes serotype M1, UniProt P10520).
T3 sequence (P10520 whole entry): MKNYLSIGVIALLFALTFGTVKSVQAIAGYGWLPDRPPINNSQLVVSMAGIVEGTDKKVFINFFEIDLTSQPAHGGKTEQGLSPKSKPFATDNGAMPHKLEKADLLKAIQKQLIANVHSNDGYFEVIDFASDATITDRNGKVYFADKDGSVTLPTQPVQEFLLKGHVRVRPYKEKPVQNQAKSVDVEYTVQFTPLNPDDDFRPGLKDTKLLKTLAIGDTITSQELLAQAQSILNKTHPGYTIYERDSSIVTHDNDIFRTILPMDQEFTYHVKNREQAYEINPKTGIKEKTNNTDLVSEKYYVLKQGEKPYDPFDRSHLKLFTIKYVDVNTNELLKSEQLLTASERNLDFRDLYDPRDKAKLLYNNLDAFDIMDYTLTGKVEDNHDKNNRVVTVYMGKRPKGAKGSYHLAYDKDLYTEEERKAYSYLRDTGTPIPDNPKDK
The test is described as follows: viability-normalized secreted streptokinase activity reduction – plasminogen activation absorbance, OD405, dose response (AID 1914).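 Further: secreted streptokinase activity via plasminogen activation per viability signal from cell pellet.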 The format is functional, Streptococcus pyogenes M1 GAS.

The target in another test is Cytochrome P450 2C19 (Homo sapiens, UniProt P33261). Description: Cytochrome panel assay with activity outcomes. Panel member name: p450-cyp2c19 Compounds with AC50 equal or less than 10 uM are considered active. The note with it: read-out: AC50. The format is functional.
Chain of Cytochrome P450 2C19 (P33261 whole entry): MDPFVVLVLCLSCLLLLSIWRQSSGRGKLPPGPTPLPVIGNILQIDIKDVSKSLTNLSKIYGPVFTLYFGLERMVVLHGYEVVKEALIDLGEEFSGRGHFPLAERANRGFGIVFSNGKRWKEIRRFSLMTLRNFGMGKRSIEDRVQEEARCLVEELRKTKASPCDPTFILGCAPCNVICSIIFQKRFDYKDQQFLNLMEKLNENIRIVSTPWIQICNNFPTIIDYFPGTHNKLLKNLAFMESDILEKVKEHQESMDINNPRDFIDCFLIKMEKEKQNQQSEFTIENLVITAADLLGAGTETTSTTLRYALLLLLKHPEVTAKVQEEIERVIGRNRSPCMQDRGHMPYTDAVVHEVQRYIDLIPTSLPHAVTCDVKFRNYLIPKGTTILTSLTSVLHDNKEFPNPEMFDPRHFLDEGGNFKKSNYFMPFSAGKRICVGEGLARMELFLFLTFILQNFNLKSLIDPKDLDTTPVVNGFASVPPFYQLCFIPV
Test [2] relates to Streptococcus sp. 'group A'. Description: Streptococcus pyogenes SK(-)GAS viability under kanamycin – luminescence, BacTiterGlo, confirmation, counter-screen for streptokinase expression inhibitor project, dose response (AID 1900). It counts as functional, organism-based. Background: Counterscreens check selectivity or assay interference.
The subject of the next test is Streptococcus. The test is described as follows: GAS UMAA2166 growth inhibition – luminescence, BacTiterGlo, counter-screen for streptokinase expression inhibitor project, dose response (AID 1915).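 Further: potency for reduction of bacterial viability or growth.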 The format is functional, organism-based.
The nature of test [3]: Luminescence Cell-Based Dose Response HTS to Identify Inhibitors of 5'UTR Stem-Loop Driven Prion Protein mRNA Translation in H4 Neuroglioblastoma Cells. [Related pubchem assays: 1827 (Project Summary), 1813 (Primary HTS)]. It counts as functional.
Test [4] can be described thus: alpha-synuclein stem-loop luciferase translation blockers – H4 neuroglioma cells, luminescence, confirmation (AID 1988). It counts as functional, cell-based.

The source made the active and inactive calls.

Chain of Cytochrome P450 2C9 (P11712 whole entry): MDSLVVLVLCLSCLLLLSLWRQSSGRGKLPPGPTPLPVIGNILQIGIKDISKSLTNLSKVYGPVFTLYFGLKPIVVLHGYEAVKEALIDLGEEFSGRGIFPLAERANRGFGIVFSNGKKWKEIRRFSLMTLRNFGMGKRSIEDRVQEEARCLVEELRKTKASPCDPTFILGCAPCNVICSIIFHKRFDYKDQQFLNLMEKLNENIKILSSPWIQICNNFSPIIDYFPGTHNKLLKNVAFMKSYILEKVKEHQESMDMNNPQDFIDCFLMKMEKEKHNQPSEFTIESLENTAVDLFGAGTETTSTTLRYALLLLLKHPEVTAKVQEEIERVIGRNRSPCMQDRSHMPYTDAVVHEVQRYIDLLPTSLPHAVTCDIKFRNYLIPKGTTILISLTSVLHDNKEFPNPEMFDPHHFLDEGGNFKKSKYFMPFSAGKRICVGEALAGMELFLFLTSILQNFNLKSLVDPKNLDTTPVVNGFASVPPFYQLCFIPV
Chain of Cytochrome P450 3A4 (P08684 whole entry): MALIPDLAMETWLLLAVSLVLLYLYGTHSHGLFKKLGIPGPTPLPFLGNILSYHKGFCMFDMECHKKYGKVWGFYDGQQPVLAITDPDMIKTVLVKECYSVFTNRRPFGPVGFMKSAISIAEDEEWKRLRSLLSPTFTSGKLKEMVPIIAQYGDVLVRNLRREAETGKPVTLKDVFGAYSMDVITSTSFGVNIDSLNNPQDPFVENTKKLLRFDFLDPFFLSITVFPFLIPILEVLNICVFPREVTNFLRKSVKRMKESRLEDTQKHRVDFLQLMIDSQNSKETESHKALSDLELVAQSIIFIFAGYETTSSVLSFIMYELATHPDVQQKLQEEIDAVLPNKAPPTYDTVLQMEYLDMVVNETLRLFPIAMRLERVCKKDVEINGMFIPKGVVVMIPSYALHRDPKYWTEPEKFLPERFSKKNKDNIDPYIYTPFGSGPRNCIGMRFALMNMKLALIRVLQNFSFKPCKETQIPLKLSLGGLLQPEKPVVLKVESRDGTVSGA
Chain of Cytochrome P450 2D6 (P10635 whole entry): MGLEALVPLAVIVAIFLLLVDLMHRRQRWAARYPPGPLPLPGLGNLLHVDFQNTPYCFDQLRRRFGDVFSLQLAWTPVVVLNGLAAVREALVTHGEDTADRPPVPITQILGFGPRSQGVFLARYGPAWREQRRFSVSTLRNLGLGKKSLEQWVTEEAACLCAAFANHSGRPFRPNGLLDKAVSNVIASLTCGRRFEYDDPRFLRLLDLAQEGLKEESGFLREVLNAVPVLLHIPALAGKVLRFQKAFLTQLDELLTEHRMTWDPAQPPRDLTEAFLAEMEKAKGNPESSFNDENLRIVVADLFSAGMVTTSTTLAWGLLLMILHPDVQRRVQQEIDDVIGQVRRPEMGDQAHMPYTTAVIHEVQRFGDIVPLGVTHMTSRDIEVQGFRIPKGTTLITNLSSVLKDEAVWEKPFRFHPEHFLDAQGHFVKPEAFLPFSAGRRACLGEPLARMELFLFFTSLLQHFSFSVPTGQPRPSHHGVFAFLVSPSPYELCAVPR

Broadly, the AC50 is the concentration giving half of the maximal activity seen. `Clc1ccc(Sc2cc(N3CCOCC3)nc(-c3ccccc3)n2)cc1`: the figures for the AC50 on Cytochrome P450 1A2 and at Cytochrome P450 3A4 were 1.41 µM (inconclusive) and 15.8 µM (inconclusive), respectively. Usually EC50 stands for the concentration needed to bring the measured effect to its halfway point. In the case of `Cc1ccc2nc(N3CCN(Cc4nnnn4Cc4ccccc4)CC3)c(C#N)cc2c1`, the EC50 in [1] was > 195 µM (not active). Still for that read-out and setting: with `Cc1ccc(C(=O)NCCn2cc(SCC(=O)N3CCOCC3)c3ccccc32)cc1` the figure was > 195 µM (not active). For the compound `COc1ccc(C(=O)N2CCC3(CCCN(Cc4ccccc4OC)C3)CC2)cc1`, the AC50 at Cytochrome P450 2D6 was 12.6 µM (inconclusive); on Cytochrome P450 3A4 it was 15.8 µM (inconclusive). Turning to `Cc1cc(C)c2c(O)nc(SCC(=O)N(C)C)nc2n1`, on Cytochrome P450 1A2, the AC50 is 15.8 µM (inconclusive). Consider `COc1ccc(CSCCNC(=S)Nc2ccccc2)cc1Cl`, for which the 50% effective concentration (EC50) on Streptokinase A is reported as > 150 µM (not active). As to `COCCN(CCOC)S(=O)(=O)c1ccc(C(=O)Nc2nc(C)c(C(C)=O)s2)cc1`, the figures for the AC50 at Cytochrome P450 1A2, on Cytochrome P450 3A4 and at Cytochrome P450 2C9 were 0.1 µM (inconclusive), 3.16 µM (inconclusive) and 20 µM (inconclusive), respectively. On to `Fc1cccc(CSc2ncnc3c2ncn3[C@H]2CCCS2)c1`, for which the half-maximal activity concentration (AC50) at Cytochrome P450 2C19 was 3.98 µM (inconclusive); at Cytochrome P450 1A2, 0.501 µM (inconclusive). On to `Cc1ccc(S(=O)(=O)c2cc(C#N)c(O)nc2N)cc1`, for which the concentration at half-maximal activity (AC50) at Cytochrome P450 2D6 is 39.8 µM (inconclusive); at Cytochrome P450 3A4 it was 25.1 µM (inconclusive). Take `CC(CO)(CO)Nc1ncnc2ccccc12`: the half-maximal activity concentration (AC50) on Cytochrome P450 1A2 is 6.31 µM (inconclusive).

Regarding `CCCC(=O)Nc1ccc2c(c1)nc(CCNC(=O)c1ccccc1)n2C`, the concentration giving a half-maximal response (EC50) (in [2]; on Streptokinase A; in the test on Streptococcus) was > 150 µM (not active) throughout.

On to `CC1=NN(c2ccc([N+](=O)[O-])cc2)C(=O)/C1=C\N(C)C`, for which the figures for the EC50 (in [2]; on Streptokinase A; in the test with Streptococcus) were 5.85 µM (active), > 150 µM (not active) and 10.9 µM (active), respectively. Take `COc1ccc(C(=O)ON=C(N)c2ccccc2)c(OC)c1`: the values for the EC50 in test [3] and in [4] were > 120 µM (not active) and 5.93 µM (active), respectively. In the case of `Cn1nnnc1SCc1ccc(C(=O)Nc2ccc(Br)cc2)cc1`, the figures for the half-maximal activity concentration (AC50) on Cytochrome P450 2C19, at Cytochrome P450 1A2 and at Cytochrome P450 2C9 were 6.31 µM (inconclusive), 6.31 µM (inconclusive) and 2 µM (inconclusive), respectively.

On to `CC1CCCN(S(=O)(=O)c2ccc(C(=O)Nc3nnc(C4CC4)o3)cc2)C1` (stereo unspecified), for which the EC50 in test [2] is 4.14 µM (active); at Streptokinase A it was > 150 µM (not active); in the test with Streptococcus it was 13.8 µM (active). On to `CC(C)CCN(C(=O)CNC(=O)c1cccs1)C(C(=O)NC1CCCCC1)c1cccnc1` (stereo unspecified), for which, in test [1], the EC50 is listed as > 195 µM (not active). For the compound `CN1C(=O)/C(=C/c2ccccc2F)Sc2ccc(C(=O)NCC3CCCO3)cc21` (stereo unspecified), the values for the EC50 (in test [2]; on Streptokinase A; in the test on Streptococcus) were 1.09 µM (active), > 150 µM (not active) and 15.6 µM (active), respectively.

Consider `COc1ccc(-c2nc3cnc(N4CCOCC4)nc3n(CCc3ccccc3)c2=O)cc1`, for which, at Cytochrome P450 1A2, the AC50 was 10 µM (inconclusive). Turning to `CCc1cc(C(=O)NCC(C)(C)N2CCOCC2)sc1C`, the EC50 in [1] is > 195 µM (not active). For `CNC(=O)c1[nH]cnc1C(=O)Nc1ccccc1C`, the concentration giving a half-maximal response (EC50) in test [1] is listed as > 195 µM (not active). As to `C=CCC(NCc1ccco1)c1ccc(OC)cc1` (stereo unspecified), the concentration at half-maximal activity (AC50) at Cytochrome P450 1A2 was 28.2 µM (inconclusive); on Cytochrome P450 3A4, 22.4 µM (inconclusive). With `CCN(CC)C(=O)c1cc(-c2ccc(Br)cc2)on1`, the 50% effective concentration (EC50) (in test [2]; at Streptokinase A; with Streptococcus) was > 150 µM (not active) in each case.

Regarding `COC(C(=O)Nc1ccnn1C1CCN(Cc2nccs2)CC1)c1ccccc1` (stereo unspecified), the concentration for a half-maximal effect (EC50) (in [2]; on Streptokinase A; in the test with Streptococcus) was > 150 µM (not active) in each case. `O=C(Nc1nncs1)c1ccc(F)c(S(=O)(=O)N2CCCCC2)c1`: the concentration for a half-maximal effect (EC50) in test [1] is 39.5 µM (active). On the same count and under the same terms, then `O=C(Nc1cccc(Cl)c1)c1ccc(S(=O)(=O)NCC2CCCO2)cc1` (stereo unspecified), with > 195 µM (not active).

`COCCNc1nc(-c2ccccc2OC)nc2ccccc12`: the AC50 was 25.1 µM (inconclusive) at Cytochrome P450 2D6 and 20 µM (inconclusive) on Cytochrome P450 3A4. As to `COc1ccc2nc(N3C(=O)CC(Cc4ccc(Cl)cc4)C3=O)sc2c1` (stereo unspecified), the concentration at half-maximal activity (AC50) at Cytochrome P450 1A2 was 2.24 µM (inconclusive). On to `COc1ccc(S(=O)(=O)N2CCCC2)cc1C(C)C`, for which, in test [1], the EC50 is given as > 195 µM (not active). In the case of `CC1CCC(C(C)C)C(OCC(O)CN2CCN(Cc3ccccc3)CC2)C1` (stereo unspecified), the AC50 is 12.6 µM (inconclusive) on Cytochrome P450 1A2 and 1.41 µM (inconclusive) at Cytochrome P450 2C9.

For the compound `c1ccc2c(c1)ncn2-c1ncnc2sc3c(c12)CCCC3`, the AC50 on Cytochrome P450 2D6 was 0.00501 µM (inconclusive); at Cytochrome P450 3A4, 14.1 µM (inconclusive); on Cytochrome P450 2C9 it was 20 µM (inconclusive). Regarding `Cc1noc(C)c1C(=O)Nc1nccs1`, the EC50 (in test [2]; on Streptokinase A; in the test with Streptococcus) was > 150 µM (not active) in each case. `O=C(O)C1CCC(=O)N(C2CCCCC2)C1c1ccccc1Cl` (stereo unspecified): the half-maximal effective concentration (EC50) in [1] is > 195 µM (not active). In the case of `CCOC(=O)c1cc2occc2n1CC(=O)N1CCCc2ccccc21`, in test [1], the EC50 is > 195 µM (not active). For `Cc1cccc(N2CCN(Cc3nc(-c4ccccc4Cl)oc3C)CC2)n1`, the EC50 in test [1] is given as > 195 µM (not active). Regarding `Sc1nnc(C2CCCCC2)n1/N=C/c1c(Cl)cccc1Cl`, the concentration giving a half-maximal response (EC50) was 10.1 µM (active) in test [2], > 150 µM (not active) at Streptokinase A and 71.9 µM (active) in the test on Streptococcus.

With `CC1Cc2ccccc2N1C(=O)CO/N=C/c1ccc(OC(F)F)cc1` (stereo unspecified), the EC50 in test [1] is listed as > 195 µM (not active). For the compound `COc1ccc(/C(C)=N/NC(=O)c2ccc(N(C)C)cc2)cc1`, on Cytochrome P450 1A2, the AC50 is 10 µM (inconclusive). Regarding `Cc1ccc(/C=N/n2cnnc2)s1`, the AC50 on Cytochrome P450 2C19 was 11.2 µM (inconclusive); at Cytochrome P450 1A2, 22.4 µM (inconclusive); at Cytochrome P450 3A4, 15.8 µM (inconclusive); on Cytochrome P450 2C9 it was 14.1 µM (inconclusive).
